Results on 3 compounds are retold here after US6495313B2, “Silver halide color photographic light-sensitive material” (Fuji Photo Film Co., Ltd., priority 1997, dated 2002).

The data set can be described thus: pKa of cyan coupler by pH titration (half-neutralization point). The conditions noted are these: tetrahydrofuran/water 6/4 by volume, solvent mixture of tetrahydrofuran and water 6/4 by volume. The data set is classed as physicochemical. How it is done:
The pKa of the coupler can be easily determined by obtaining a pH of a point where neutralization is performed just half on a pH titration curve measured in a solvent mixture of tetrahydrofuran and water in a ratio of 6/4 by volume.
With `CCCCCCCCCCCCCCOc1ccccc1NC(=O)c1cc(OC(C)=O)c2ccccc2c1O` [Sample C-6], the pKa was not above 8.7.

As for `CCCCCCCCCCCCc1ccc(S(=O)(=O)c2cc(C(=O)NCCc3ccccc3NC(C)=O)c(O)c3ccccc23)cc1` [Sample C-8], the pKa stood at 6.02.

As for `CCCCCCCCCCCCCCCCNC(=O)c1cc(OCCS(C)(=O)=O)c2ccccc2c1O` [Sample C-4, reference compound], the pKa turned out to be 10.3.
